Experimental data taken from patent publication US20200291018A1, “TAM KINASE INHIBITORS” (SYROS PHARMACEUTICALS, INC., priority 2017, published 2020).

Experiments:
FLT3 = target: T1, FLT3 (Homo sapiens, UniProt P36888); test: TR-FRET kinase activity assay, FLT3; format: biochemical; conditions: ATP at Km, 60 minutes
T1 sequence (P36888 27-993): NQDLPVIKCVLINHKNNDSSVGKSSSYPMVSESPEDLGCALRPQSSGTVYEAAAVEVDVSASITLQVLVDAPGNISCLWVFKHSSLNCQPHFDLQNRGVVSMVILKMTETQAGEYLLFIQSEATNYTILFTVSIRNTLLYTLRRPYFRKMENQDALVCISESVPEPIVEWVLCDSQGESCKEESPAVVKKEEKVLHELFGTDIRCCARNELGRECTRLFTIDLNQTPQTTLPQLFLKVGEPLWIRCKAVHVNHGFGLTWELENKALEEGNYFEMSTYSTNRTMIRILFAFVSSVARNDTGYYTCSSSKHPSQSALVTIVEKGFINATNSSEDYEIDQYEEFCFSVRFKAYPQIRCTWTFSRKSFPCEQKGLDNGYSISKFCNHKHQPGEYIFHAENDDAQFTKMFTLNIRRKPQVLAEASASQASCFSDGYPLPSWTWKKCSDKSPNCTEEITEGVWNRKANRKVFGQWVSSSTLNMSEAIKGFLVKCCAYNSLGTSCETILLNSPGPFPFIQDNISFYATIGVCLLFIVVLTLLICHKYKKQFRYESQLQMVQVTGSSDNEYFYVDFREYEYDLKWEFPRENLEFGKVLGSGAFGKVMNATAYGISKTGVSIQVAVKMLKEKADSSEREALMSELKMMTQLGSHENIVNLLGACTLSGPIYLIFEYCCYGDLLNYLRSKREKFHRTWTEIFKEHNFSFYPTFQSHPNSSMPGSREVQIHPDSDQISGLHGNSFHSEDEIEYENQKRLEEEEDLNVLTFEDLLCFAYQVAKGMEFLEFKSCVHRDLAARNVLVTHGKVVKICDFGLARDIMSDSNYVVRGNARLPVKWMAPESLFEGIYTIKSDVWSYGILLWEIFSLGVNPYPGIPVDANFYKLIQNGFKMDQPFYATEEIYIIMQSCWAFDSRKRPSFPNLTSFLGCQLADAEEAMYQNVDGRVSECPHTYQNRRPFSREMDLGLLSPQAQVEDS
Method in brief: (§1)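 Enzyme, fluorescent-labeled peptide substrate and compound were mixed in 50 mM HEPES pH 7.5, 10 mM MgCl2, 1 mM EGTA, 0.01% Brij 35, 1 mM DTT at RT; ATP at each enzyme's Km started the reaction. After 60 min, EDTA quench and Eu-anti-phosphotyrosine-site antibody (30 min, dark); TR-FRET read, IC50 derived.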

MERTK = target: T2, MERTK (Homo sapiens, UniProt Q12866); test: TR-FRET kinase activity assay, MERTK; format: biochemical; conditions: for IC50: TR-FRET activity assay, ATP at Km, 60 minutes, read-out: Mer IC50; for Mer/Flt3 ratio (FLT3 IC50/Mer IC50): ratio calculated as FLT3 IC50/Mer IC50
T2 sequence (Q12866 21-999): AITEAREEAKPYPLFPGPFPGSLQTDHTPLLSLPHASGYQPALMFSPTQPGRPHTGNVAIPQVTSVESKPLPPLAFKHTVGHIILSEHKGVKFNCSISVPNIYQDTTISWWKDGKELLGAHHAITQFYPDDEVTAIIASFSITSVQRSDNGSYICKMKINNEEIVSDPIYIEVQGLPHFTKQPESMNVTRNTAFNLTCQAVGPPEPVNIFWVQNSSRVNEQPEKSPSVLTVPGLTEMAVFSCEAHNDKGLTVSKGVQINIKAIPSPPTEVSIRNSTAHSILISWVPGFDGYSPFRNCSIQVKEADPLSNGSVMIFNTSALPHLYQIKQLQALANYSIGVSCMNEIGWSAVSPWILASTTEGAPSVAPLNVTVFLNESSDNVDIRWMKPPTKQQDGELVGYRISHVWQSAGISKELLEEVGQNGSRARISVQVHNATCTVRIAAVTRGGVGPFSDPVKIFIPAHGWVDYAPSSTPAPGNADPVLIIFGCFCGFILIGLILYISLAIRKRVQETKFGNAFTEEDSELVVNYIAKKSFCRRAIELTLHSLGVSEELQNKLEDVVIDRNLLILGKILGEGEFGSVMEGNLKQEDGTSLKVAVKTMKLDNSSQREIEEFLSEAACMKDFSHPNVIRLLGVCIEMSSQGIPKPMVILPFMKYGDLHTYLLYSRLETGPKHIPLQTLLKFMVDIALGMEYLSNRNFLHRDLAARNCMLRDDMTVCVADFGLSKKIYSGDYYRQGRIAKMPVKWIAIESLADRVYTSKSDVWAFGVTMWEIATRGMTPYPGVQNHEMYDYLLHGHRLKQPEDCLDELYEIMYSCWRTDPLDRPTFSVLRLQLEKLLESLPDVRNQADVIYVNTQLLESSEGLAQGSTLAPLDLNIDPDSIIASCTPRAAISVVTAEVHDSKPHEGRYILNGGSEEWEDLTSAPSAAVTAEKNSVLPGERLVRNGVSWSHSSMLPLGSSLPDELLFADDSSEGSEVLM
Method in brief: as §1

COC[C@H](C)Nc1ncc2c(OC3CCOCC3)ncc(-c3cccc(C(N)=O)c3)c2n1 [Compound 325]
IC50 (FLT3): 1000 to 10000 nM
IC50 (MERTK): 100 to 1000 nM
Mer/Flt3 ratio (FLT3 IC50/Mer IC50) (MERTK): ++ (a ratio of between 10 and 100)

COC[C@H](C)Nc1ncc2c(OC3CCOCC3)ncc([C@H]3CCCNC3)c2n1 [Compound 326]
IC50 (FLT3): ≤ 100 nM
IC50 (MERTK): 100 to 1000 nM
Mer/Flt3 ratio (FLT3 IC50/Mer IC50) (MERTK): NS (a ratio of ≤2.0)

COC[C@H](C)Nc1ncc2c(OC3CCOCC3)ncc([C@@H]3CCCNC3)c2n1 [Compound 327]
IC50 (FLT3): 1000 to 10000 nM
IC50 (MERTK): 100 to 1000 nM
Mer/Flt3 ratio (FLT3 IC50/Mer IC50) (MERTK): ++ (a ratio of between 10 and 100)

COC[C@H](C)Nc1ncc2c(OC3CCOCC3)ncc(-c3cccc(S(N)(=O)=O)c3)c2n1 [Compound 328]
IC50 (FLT3): 1000 to 10000 nM
IC50 (MERTK): 100 to 1000 nM
Mer/Flt3 ratio (FLT3 IC50/Mer IC50) (MERTK): ++ (a ratio of between 10 and 100)

COC[C@H](C)Nc1ncc2c(OC3CCOCC3)ncc([C@H]3CC[C@@](O)(C(F)(F)F)CC3)c2n1 [Compound 329]
IC50 (FLT3): 1000 to 10000 nM
IC50 (MERTK): ≤ 100 nM
Mer/Flt3 ratio (FLT3 IC50/Mer IC50) (MERTK): +++ (a ratio of >100)

COC[C@H](C)Nc1ncc2c(OC3CCOCC3)ncc([C@H]3CC[C@](O)(C(F)(F)F)CC3)c2n1 [Compound 330]
IC50 (FLT3): 1000 to 10000 nM
IC50 (MERTK): 100 to 1000 nM
Mer/Flt3 ratio (FLT3 IC50/Mer IC50) (MERTK): ++ (a ratio of between 10 and 100)

N#Cc1ccc(Nc2ncc3c(OC4CCNCC4)ncc([C@H]4CC[C@H](O)CC4)c3n2)cc1 [Compound 331]
IC50 (FLT3): ≤ 100 nM
IC50 (MERTK): ≤ 100 nM
Mer/Flt3 ratio (FLT3 IC50/Mer IC50) (MERTK): + (a ratio of >2.0 and <10)

COC[C@H](C)Nc1ncc2c(OC3CCOCC3)ncc([C@H]3CCCN(C)C3)c2n1 [Compound 332]
IC50 (FLT3): 1000 to 10000 nM
IC50 (MERTK): 100 to 1000 nM
Mer/Flt3 ratio (FLT3 IC50/Mer IC50) (MERTK): + (a ratio of >2.0 and <10)

COC[C@H](C)Nc1ncc2c(OC3CCOCC3)ncc([C@@H]3CCCN(C)C3)c2n1 [Compound 333]
IC50 (FLT3): 1000 to 10000 nM
IC50 (MERTK): 1000 to 10000 nM
Mer/Flt3 ratio (FLT3 IC50/Mer IC50) (MERTK): + (a ratio of >2.0 and <10)

COC[C@H](C)Nc1ncc2c(OC3CCOCC3)ncc(-c3cnn([C@H]4CCN(C)C4)c3)c2n1 [Compound 334]
IC50 (FLT3): 1000 to 10000 nM
IC50 (MERTK): ≤ 100 nM
Mer/Flt3 ratio (FLT3 IC50/Mer IC50) (MERTK): ++ (a ratio of between 10 and 100)

COC[C@H](C)Nc1ncc2c(OC3CCOCC3)ncc(-c3ccc(CO)cc3)c2n1 [Compound 335]
IC50 (FLT3): 1000 to 10000 nM
IC50 (MERTK): ≤ 100 nM
Mer/Flt3 ratio (FLT3 IC50/Mer IC50) (MERTK): +++ (a ratio of >100)

O[C@H]1CC[C@H](c2cnc(OC3CCOCC3)c3cnc(N[C@H]4CCC(F)(F)C4)nc32)CC1 [Compound 336]
IC50 (FLT3): 100 to 1000 nM
IC50 (MERTK): ≤ 100 nM
Mer/Flt3 ratio (FLT3 IC50/Mer IC50) (MERTK): ++ (a ratio of between 10 and 100)

COC[C@H](C)Nc1ncc2c(OC3CCOCC3)ncc(-c3ccc(N)nc3)c2n1 [Compound 337]
IC50 (FLT3): 1000 to 10000 nM
IC50 (MERTK): ≤ 100 nM
Mer/Flt3 ratio (FLT3 IC50/Mer IC50) (MERTK): +++ (a ratio of >100)

C[C@H](CC(F)(F)F)Nc1ncc2c(OC3CCOCC3)ncc([C@H]3CC[C@H](O)CC3)c2n1 [Compound 338]
IC50 (FLT3): 1000 to 10000 nM
IC50 (MERTK): ≤ 100 nM
Mer/Flt3 ratio (FLT3 IC50/Mer IC50) (MERTK): +++ (a ratio of >100)

CCC1(Nc2ncc3c(OC4CCOCC4)ncc([C@H]4CC[C@H](O)CC4)c3n2)CC1 [Compound 339]
IC50 (FLT3): 1000 to 10000 nM
IC50 (MERTK): ≤ 100 nM
Mer/Flt3 ratio (FLT3 IC50/Mer IC50) (MERTK): +++ (a ratio of >100)

CNC(=O)N[C@H]1CC[C@H](c2cnc(OC3CCOCC3)c3cnc(N[C@@H](C)COC)nc32)CC1 [Compound 340]
IC50 (FLT3): 1000 to 10000 nM
IC50 (MERTK): ≤ 100 nM
Mer/Flt3 ratio (FLT3 IC50/Mer IC50) (MERTK): +++ (a ratio of >100)

CNS(=O)(=O)N1CCC(c2cnc(OC3CCOCC3)c3cnc(N[C@@H](C)COC)nc23)CC1 [Compound 341]
IC50 (FLT3): 1000 to 10000 nM
IC50 (MERTK): ≤ 100 nM
Mer/Flt3 ratio (FLT3 IC50/Mer IC50) (MERTK): +++ (a ratio of >100)

COC[C@H](C)Nc1ncc2c(OC3CCOCC3)ncc(-c3ccnnc3)c2n1 [Compound 342]
IC50 (FLT3): 1000 to 10000 nM
IC50 (MERTK): 1000 to 10000 nM
Mer/Flt3 ratio (FLT3 IC50/Mer IC50) (MERTK): + (a ratio of >2.0 and <10)

COC[C@H](C)Nc1ncc2c(OC3C[C@H]4CC[C@@H](C3)N4C)ncc([C@H]3CC[C@H](O)CC3)c2n1 (stereo partly drawn) [Compound 343]
IC50 (FLT3): 1000 to 10000 nM
IC50 (MERTK): ≤ 100 nM
Mer/Flt3 ratio (FLT3 IC50/Mer IC50) (MERTK): +++ (a ratio of >100)

COC[C@H](C)Nc1ncc2c(OC3CCN(c4ncccn4)CC3)ncc([C@H]3CC[C@H](O)CC3)c2n1 [Compound 344]
IC50 (FLT3): 1000 to 10000 nM
IC50 (MERTK): ≤ 100 nM
Mer/Flt3 ratio (FLT3 IC50/Mer IC50) (MERTK): +++ (a ratio of >100)

CNC(=O)N1CCC(c2cnc(OC3CCOCC3)c3cnc(N[C@@H](C)COC)nc23)CC1 [Compound 345]
IC50 (FLT3): 1000 to 10000 nM
IC50 (MERTK): 100 to 1000 nM
Mer/Flt3 ratio (FLT3 IC50/Mer IC50) (MERTK): ++ (a ratio of between 10 and 100)

COC[C@H](C)Nc1ncc2c(OC3CCOCC3)ncc(C3CCCCN3)c2n1 (stereo partly drawn) [Compound 346]
IC50 (FLT3): 1000 to 10000 nM
IC50 (MERTK): 100 to 1000 nM
Mer/Flt3 ratio (FLT3 IC50/Mer IC50) (MERTK): + (a ratio of >2.0 and <10)

COC[C@H](C)Nc1ncc2c(OC3CCOCC3)ncc(-c3cn[nH]c3)c2n1 [Compound 347]
IC50 (FLT3): 100 to 1000 nM
IC50 (MERTK): 100 to 1000 nM
Mer/Flt3 ratio (FLT3 IC50/Mer IC50) (MERTK): + (a ratio of >2.0 and <10)

COC[C@H](C)Nc1ncc2c(C3CC3)ncc([C@H]3CC[C@H](O)CC3)c2n1 [Compound 349]
IC50 (FLT3): 1000 to 10000 nM
IC50 (MERTK): ≤ 100 nM
Mer/Flt3 ratio (FLT3 IC50/Mer IC50) (MERTK): +++ (a ratio of >100)

COC[C@H](C)Nc1ncc2c(OC3CCOCC3)ncc(C3CCCCN3C)c2n1 (stereo partly drawn) [Compound 350]
IC50 (FLT3): 1000 to 10000 nM
IC50 (MERTK): 100 to 1000 nM
Mer/Flt3 ratio (FLT3 IC50/Mer IC50) (MERTK): ++ (a ratio of between 10 and 100)

COC[C@@H](C)Nc1ncc2c(OC3CC(O)C3)ncc([C@H]3CC[C@H](O)CC3)c2n1 (stereo partly drawn) [Compound 351]
IC50 (FLT3): 1000 to 10000 nM
IC50 (MERTK): ≤ 100 nM
Mer/Flt3 ratio (FLT3 IC50/Mer IC50) (MERTK): +++ (a ratio of >100)
